Counter-ions that a name gives are not always drawn.
Key:
human KDR = molecular target: T1, human KDR (Homo sapiens, UniProt P35968); assay: Inhibitory activity against KDR phosphorylation by ELISA (VEGF-stimulated NIH 3T3 cells expressing human KDR); type: cell-based; settings: VEGF 100 ng/ml, compound 1 hr, read-out: IC50 (inhibition of KDR phosphorylation)
T1 construct: expressed in transfected cells; host or cells: NIH 3T3 cells (mouse fibroblasts) stably expressing human KDR
Protocol: The harvested cells were inoculated into wells of a collagen-type one-coat 96-well flat-bottom plate, each containing the same medium, in an amount of 1.5×10^4 per well, followed by cultivation at 37° C. overnight. The medium was then replaced by a DMEM medium containing 0.1% fetal calf serum. A solution of a test compound in dimethyl sulfoxide was added to each well, and the cultivation was continued at 37° C. for additional one hr. A human recombinant vascular endothelial growth factor (hereinafter abbreviated to “VEGF”) was added to a final concentration of 100 ng/ml, and the stimulation of cells was carried out at 37° C. for 2 min. The medium was removed, the cells were washed with phosphate buffered saline (pH 7.4), and 50 μl of a solubilization buffer (20 mM HEPES (pH 7.4), 150 mM NaCl, 0.2% Triton X-100, 10% glycerol, 5 mM sodium orthovanadylate, 5 mM disodium ethylenediaminetetraacetate, and 2 mM Na4P2O7) was then added thereto. The mixture was shaken at 4° C. for 2 hr to prepare a cell extract.
Separately, phosphate buffered saline (50 μl, pH 7.4) containing 5 μg/ml of an anti-phospho-tyrosine antibody (PY20; purchased from Transduction Laboratories) was added to a microplate for ELISA (Maxisorp; purchased from NUNC), followed by standing at 4° C. overnight to form a solid phase on the wells. After washing of the plate, 300 μl of a blocking solution was added, followed by standing at room temperature for 2 hr to perform blocking. After washing, the whole quantity of the cell extract was transferred to the wells, and the plate was then allowed to stand at 4° C. overnight. After washing, an anti-KDR antibody (purchased from Santa Cruz) was allowed to react at room temperature for one hr, and, after washing, a peroxidase-labeled anti-rabbit Ig antibody (purchased from Amersham) was allowed to react at room temperature for one hr. After washing, a chromophoric substrate for peroxidase (purchased from Sumitomo Bakelite Co., Ltd.) was added thereto to initiate a reaction. After a suitable level of color development, a reaction termination solution was added to stop the reaction, and the absorbance at 450 nm was measured with a microplate reader. The KDR phosphorylation activity for each well was determined by presuming the absorbance with the addition of VEGF and without the addition of the medicament to be 100% KDR phosphorylation activity and the absorbance without the addition of the medicament and VEGF to be 0% KDR phosphorylation activity.

[1] = tested on: Human pulmonary carcinoma cells (LC-6); assay: Antitumor activity against human pulmonary carcinoma cells (LC-6) transplanted into nude mice; type: in vivo; settings: LC-6 in nude mice, oral 20 mg/kg once a day for 9 days; for inhibition in vivo at 20 mg/kg: Mus musculus, 216 h, read-out: TGIR (tumor growth inhibition rate)
Protocol: Human pulmonary carcinoma cells (LC-6) (obtained from Central Laboratories for Experimental Animals) were transplanted into nude mice. When the tumor volume became about 100 mm^3, the mice were grouped so that each group consisted of four mice and the average tumor volume was even among the groups. A test compound was orally administered at a dose of 20 mg/kg to the test groups every day once a day for 9 days, while only a vehicle was administered to a control group in the manner as in the test groups. The tumor growth inhibition rate (TGIR) was calculated as follows: The tumor growth inhibition rate (TGIR)=(1−TX/CX)×100 wherein CX represents the volume of tumor at day X for the control group when the tumor volume at the first day of the administration was presumed to be 1; and TX represents the tumor volume for test compound administration groups.

T1 sequence (P35968 20-1356): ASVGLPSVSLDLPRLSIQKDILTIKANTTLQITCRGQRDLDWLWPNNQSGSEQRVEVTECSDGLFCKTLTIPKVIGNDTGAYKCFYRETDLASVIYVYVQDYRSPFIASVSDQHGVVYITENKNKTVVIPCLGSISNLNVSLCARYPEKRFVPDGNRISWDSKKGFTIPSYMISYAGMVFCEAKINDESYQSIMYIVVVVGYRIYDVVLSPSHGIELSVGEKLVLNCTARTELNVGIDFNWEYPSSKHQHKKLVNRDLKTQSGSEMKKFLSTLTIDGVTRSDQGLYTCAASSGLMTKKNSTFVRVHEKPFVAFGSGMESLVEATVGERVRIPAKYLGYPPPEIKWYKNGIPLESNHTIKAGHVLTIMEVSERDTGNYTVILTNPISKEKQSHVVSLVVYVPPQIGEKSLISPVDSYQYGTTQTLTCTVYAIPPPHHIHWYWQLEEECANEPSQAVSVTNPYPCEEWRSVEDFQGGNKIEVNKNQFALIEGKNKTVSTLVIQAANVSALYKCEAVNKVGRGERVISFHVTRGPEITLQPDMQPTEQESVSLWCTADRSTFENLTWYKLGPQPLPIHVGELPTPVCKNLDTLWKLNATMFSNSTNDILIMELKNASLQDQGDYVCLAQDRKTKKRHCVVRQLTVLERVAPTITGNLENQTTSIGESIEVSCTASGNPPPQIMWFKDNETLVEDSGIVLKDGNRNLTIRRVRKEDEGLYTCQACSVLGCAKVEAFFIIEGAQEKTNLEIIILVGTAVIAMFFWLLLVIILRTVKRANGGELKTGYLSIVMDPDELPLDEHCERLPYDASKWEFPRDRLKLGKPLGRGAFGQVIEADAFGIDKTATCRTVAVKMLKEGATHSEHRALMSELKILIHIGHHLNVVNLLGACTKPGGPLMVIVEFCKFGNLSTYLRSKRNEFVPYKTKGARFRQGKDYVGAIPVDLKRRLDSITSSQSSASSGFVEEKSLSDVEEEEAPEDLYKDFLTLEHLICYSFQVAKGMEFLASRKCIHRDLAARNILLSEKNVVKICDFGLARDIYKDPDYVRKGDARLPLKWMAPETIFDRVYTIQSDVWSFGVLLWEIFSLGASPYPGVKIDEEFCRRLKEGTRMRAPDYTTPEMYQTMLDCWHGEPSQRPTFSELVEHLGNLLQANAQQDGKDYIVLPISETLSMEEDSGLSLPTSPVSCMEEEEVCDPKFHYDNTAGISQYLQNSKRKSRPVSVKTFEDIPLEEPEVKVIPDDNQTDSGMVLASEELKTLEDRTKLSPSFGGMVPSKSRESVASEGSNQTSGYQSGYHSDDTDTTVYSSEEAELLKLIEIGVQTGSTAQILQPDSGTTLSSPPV

COc1cc2nccc(Oc3ccc(NC(=O)Nc4ccon4)cc3F)c2cc1OC [Ex. 3, N-{4-[(6,7-Dimethoxy-4-quinolyl)oxy]-3-fluorophenyl}-N′-(3-isoxazolyl)urea]
IC50 (human KDR): < 1 nM | inhibition in vivo at 20 mg/kg [1]: 39.5%

COc1cc2nccc(Oc3ccc(NC(=O)Nc4cc(C)no4)c(Cl)c3)c2cc1OC [Ex. 5, N-{2-Cloro-4-[(6,7-dimethoxy-4-quinolyl)oxy]phenyl}-N′-(3-methyl-5-isoxazolyl)urea]
IC50 (human KDR): < 1 nM | TGIR (tumor growth inhibition rate) [1]: 29.5%

COc1cc2nccc(Oc3ccc(NC(=O)Nc4cc(C)no4)c(F)c3)c2cc1OC [Ex. 6, N-{4-[(6,7-Dimethoxy-4-quinolyl)oxy]-2-fluorophenyl}-N′-(3-methyl-5-isoxazolyl)urea]
IC50 (human KDR): < 1 nM | inhibition in vivo at 20 mg/kg [1]: 29.3%

COc1cc2nccc(Oc3ccc(NC(=O)Nc4cc(C)on4)c(F)c3)c2cc1OC [Ex. 9, N-{4-[(6,7-Dimethoxy-4-quinolyl)oxy]-2-fluorophenyl}-N′-(5-methyl-3-isoxazolyl)urea]
IC50 (human KDR): 0.2 nM | inhibition in vivo at 20 mg/kg [1]: 63.5%

COc1cc2nccc(Oc3ccc(NC(=O)Nc4ncc(C)s4)c(F)c3)c2cc1OC [Ex. 21, N-{4-[(6,7-Dimethoxy-4-quinolyl)oxy]-2-fluorophenyl}-N′-(5-methyl-1.3-thiazol-2-yl)urea hydrochloride]
IC50 (human KDR): 0.4 nM | inhibition in vivo at 20 mg/kg [1]: 66.6%

COc1cc2nccc(Oc3ccc(NC(=O)Nc4nc(C)cs4)c(Cl)c3)c2cc1OC [Ex. 22, N-{2-Chloro-4-[(6,7-dimethoxy-4-quinolyl)oxy]phenyl}-N′-(4-methyl-1,3-thiazol-2-yl)urea]
IC50 (human KDR): < 1 nM | inhibition in vivo at 20 mg/kg [1]: 43.8%

COc1cc2nccc(Oc3ccc(NC(=O)Nc4nc(C)c(C)s4)c(F)c3)c2cc1OC [Ex. 23, N-{4-[(6,7-Dimethoxy-4-quinolyl)oxy]-2-fluorophenyl}-N′-(4,5-dimethyl-1,3-thiazol-2-yl)urea]
IC50 (human KDR): < 1 nM | inhibition in vivo at 20 mg/kg [1]: 51.7%

COc1cc2nccc(Oc3ccc(NC(=O)Nc4nc(C)c(C)s4)c(Cl)c3)c2cc1OC [Ex. 24, N-{2-Chloro-4-[(6,7-dimethoxy-4-quinolyl)oxy]phenyl}-N′-(4,5-dimethyl-1,3-thiazol-2-yl)urea]
IC50 (human KDR): 1 nM | inhibition in vivo at 20 mg/kg [1]: 39.8%

COc1cc2nccc(Oc3ccc(NC(=O)Nc4nc(C)c(C)s4)cc3Cl)c2cc1OC [Ex. 25, N-{3-Chloro-4-[(6,7-dimethoxy-4-quinolyl)oxy]phenyl}-N′-(4,5-dimethyl-1,3-thiazol-2-yl)urea]
IC50 (human KDR): 1.9 nM | inhibition in vivo at 20 mg/kg [1]: 18.8%

CCOC(=O)Cc1csc(NC(=O)Nc2ccc(Oc3ccnc4cc(OC)c(OC)cc34)cc2F)n1 [Ex. 29, Ethyl 2-{2-[({4-[(6,7-dimethoxy-4-quinolyl)oxy]-2-fluoroanilino}carbonyl)amino]-1,3-thiazol-4-yl}acetate]
IC50 (human KDR): 49.4 nM | inhibition in vivo at 20 mg/kg [1]: 66.1%

COc1cc2ncnc(Oc3ccc(NC(=O)Nc4ncc(C)s4)c(Cl)c3)c2cc1OC [Ex. 39, N-{2-Chloro-4-[(6,7-dimethoxy-4-quinazolinyl)oxy]phenyl}-N′-(5-methyl-1,3-thiazol-2-yl)urea]
IC50 (human KDR): < 1 nM | inhibition in vivo at 20 mg/kg [1]: 64%

COc1cc2ncnc(Oc3ccc(NC(=O)Nc4nc(C)c(C)s4)c(Cl)c3)c2cc1OC [Ex. 40, N-{2-Chloro-4-[(6,7-dimethoxy-4-quinazolinyl)oxy]phenyl}-N′-(4,5-dimethyl-1,3-thiazol-2-yl)urea]
IC50 (human KDR): < 1 nM | inhibition in vivo at 20 mg/kg [1]: 34.2%

COc1cc2nccc(Oc3ccc(NC(=O)Nc4nnc(C(F)(F)F)s4)cc3)c2cc1OC [Ex. 50, N-{4-[(6,7-Dimethoxy-4-quinolyl)oxy]phenyl}-N′-[5-(trifluoromethyl)-1,3,4-thiadiazol-2-yl]urea]
IC50 (human KDR): 6.3 nM | inhibition in vivo at 20 mg/kg [1]: 11.9%

COc1cc2nccc(Oc3ccc(NC(=O)Nc4nnc(C(F)(F)F)s4)c(F)c3)c2cc1OC [Ex. 51, N-{4-[(6,7-Dimethoxy-4-quinolyl)oxy]-2-fluorophenyl}-N′-[5-(trifluoromethyl)-1,3,4-thiadiazol-2-yl]urea]
IC50 (human KDR): 3.7 nM | inhibition in vivo at 20 mg/kg [1]: 45.6%

COc1cc2nccc(Oc3ccc(NC(=O)Nc4nnc(C(F)(F)F)s4)cc3F)c2cc1OC [Ex. 52, N-{4-[(6,7-Dimethoxy-4-quinolyl)oxy]-3-fluorophenyl}-N′-[5-(trifluoromethyl)-1,3,4-thiadiazol-2-yl]urea]
IC50 (human KDR): 13 nM | inhibition in vivo at 20 mg/kg [1]: 20.7%

COc1cc2nccc(Oc3ccc(NC(=O)Nc4nnc(C(F)(F)F)s4)c(C)c3C)c2cc1OC [Ex. 53, N-{4-[(6,7-Dimethoxy-4-quinolyl)oxy]-2,3-dimethylphenyl}-N′-[5-(trifluoromethyl)-1,3,4-thiadiazol-2-yl]urea]
IC50 (human KDR): 1.2 nM | inhibition in vivo at 20 mg/kg [1]: 14.4%

CCc1nnc(NC(=O)Nc2ccc(Oc3ccnc4cc(OC)c(OC)cc34)c(F)c2)s1 [Ex. 64, N-{4-[(6,7-Dimethoxy-4-quinolyl)oxy]-3-fluorophenyl}-N′-(5-ethyl-1,3,4-thiadiazol-2-yl)urea]
IC50 (human KDR): 1.5 nM

CCc1nnc(NC(=O)Nc2ccc(Oc3ccnc4cc(OC)c(OC)cc34)cc2Cl)s1 [Ex. 65, N-{2-Chloro-4-[(6,7-dimethoxy-4-quinolyl)oxy]phenyl}-N′-(5-ethyl-1,3,4-thiadiazol-2-yl)urea]
IC50 (human KDR): < 1 nM

CCc1nnc(NC(=O)Nc2ccc(Oc3ccnc4cc(OC)c(OC)cc34)c(Cl)c2)s1 [Ex. 66, N-{3-Chloro-4-[(6,7-dimethoxy-4-quinolyl)oxy]phenyl}-N′-(5-ethyl-1,3,4-thiadiazol-2-yl)urea]
IC50 (human KDR): 3.7 nM

COc1cc2nccc(Oc3ccc(NC(=O)Nc4nnc(C5CC5)s4)c(Cl)c3)c2cc1OC [Ex. 67, N-{2-Chloro-4-[(6,7-dimethoxy-4-quinolyl)oxy]phenyl}-N′-(5-cyclopropyl-1,3,4-thiadiazol-2-yl)urea]
IC50 (human KDR): 2.4 nM

COc1cc2nccc(Oc3ccc(NC(=O)Nc4nnc(C5CC5)s4)cc3Cl)c2cc1OC [Ex. 68, N-{3-Chloro-4-[(6,7-dimethoxy-4-quinolyl)oxy]phenyl}-N′-(5-cyclopropyl-1,3,4-thiadiazol-2-yl)urea]
IC50 (human KDR): 18 nM

CCSc1nnc(NC(=O)Nc2ccc(Oc3ccnc4cc(OC)c(OC)cc34)cc2F)s1 [Ex. 70, N-{4-[(6,7-Dimethoxy-4-quinolyl)oxy]-2-fluorophenyl}-N′-[5-(ethylsulfanyl)-1,3,4-thiadiazol-2-yl]urea]
IC50 (human KDR): 2.2 nM

CCSc1nnc(NC(=O)Nc2ccc(Oc3ccnc4cc(OC)c(OC)cc34)c(C)c2C)s1 [Ex. 71, N-{4-[(6,7-Dimethoxy-4-quinolyl)oxy]-2,3-dimethylphenyl}-N′-[5-(ethylsulfanyl)-1,3,4-thiadiazol-2-yl]urea]
IC50 (human KDR): 3.1 nM

COc1cc2nccc(Oc3ccc(NC(=O)Nc4nnc(C(F)(F)F)s4)c(Cl)c3)c2cc1OC [Ex. 72, N-{2-Chloro-4-[(6,7-dimethoxy-4-quinolyl)oxy]phenyl}-N′-[5-(trifluoromethyl)-1,3,4-thiadiazol-2-yl]urea]
IC50 (human KDR): 2.9 nM

COc1cc2nccc(Oc3ccc(NC(=O)Nc4nnc(C(F)(F)F)s4)cc3Cl)c2cc1OC [Ex. 73, N-{3-Chloro-4-[(6,7-dimethoxy-4-quinolyl)oxy]phenyl}-N′-[5-(trifluoromethyl)-1,3,4-thiadiazol-2-yl]urea]
IC50 (human KDR): 21 nM

COc1cc2nccc(Oc3ccc(NC(=O)Nc4nnc(C(C)(C)C)s4)c(F)c3)c2cc1OC [Ex. 74, N-[5-(Tert-butyl)-1,3,4-thiadiazol-2-yl]-N′-{4-[(6,7-dimethoxy-4-quinolyl)oxy]-2-fluorophenyl}urea]
IC50 (human KDR): 3 nM

COc1cc2nccc(Oc3ccc(NC(=O)Nc4nnc(C(C)(C)C)s4)c(C)c3C)c2cc1OC [Ex. 75, N-[5-(Tert-butyl)-1,3,4-thiadiazol-2-yl]-N′-{4-[(6,7-dimethoxy-4-quinolyl)oxy]-2,3-dimethylphenyl}-urea]
IC50 (human KDR): 4.5 nM
